According to patent US20210155814A1, “ACTIVE-ENERGY-RAY-CURABLE AQUEOUS COMPOSITION, ACTIVE-ENERGY-RAY-CURABLE AQUEOUS INK, STORED CONTAINER, IMAGE FORMING APPARATUS, IMAGE FORMING METHOD, CURED PRODUCT, AND DECORATED PRODUCT” (priority 2019, published 2021):

Columns and labels:
[1] = tested on: Female mice; experiment: Skin sensitization test by local lymph node assay (LLNA) method, SI value of materials; type: in vivo; conditions: for SI (stimulation index, LLNA): test substance 50.0 w/v % in acetone:olive oil 4:1, 25 microliters per auricle, once a day for three days, BrdU intake by ELISA
Text: The present disclosure can provide an active-energy-ray-curable aqueous composition excellent in scratch resistance and storage stability and safe in skin sensitizing potential. Safety in skin sensitizing potential means that a SI value, which is a degree of sensitizing potential, is 3 or lower in a skin sensitization test by the LLNA method.
The “LLNA method” mentioned above is a skin sensitization test stipulated in OECD (Organisation for Economic Co-operation and Development) Test Guidelines. As described in literatures (e.g., “Functional Material”, September 2005 issue, Vol. 25, No. 9, p. 55), LLNA method judges that a stimulation index (SI value) of 3 or lower as a degree of skin sensitizing potential is non-problematic in terms of skin sensitizing potential.
The SI value was measured in the manner described below by a skin sensitization test according to a local lymph node assay (LLNA) method.
As the positive control substance, α-hexyl cinnamaldehyde (HCA, obtained from Wako Pure Chemical Industries, Ltd.) was used.
As the medium, a mixture liquid containing acetone (obtained from Wako Pure Chemical Industries, Ltd.) and olive oil (obtained from Fudimi Pharmaceutical Co., Ltd.) in a volume ratio of 4:1 (acetone:olive oil) was used.
Female mice were acclimated to the test substance, the positive control, and the medium control for 8 days including 6-day quarantine. No abnormalities were found in all of the animals during the quarantine/acclimation period.
Based on the body weights measured 2 days before the initiation of sensitization, the animals were separated into […] (4 mice/group) by the body weight stratified random sampling method in a manner that the body weight of each individual was within ±20% of the average body weight of all individuals. Each of the animals was 8 weeks old to 9 weeks old at the time of the initiation of sensitization.
The test substance was weighed out in a volumetric flask, and the volume of the test substance was adjusted to 1 mL with addition of the medium. The prepared liquid was poured into a light-blocked airtight container (formed of glass).
HCA was accurately weighed out in an amount of about 0.25 g, and adjusted to 1 mL with addition of the medium, to prepare a 25.0 w/v % liquid. The prepared liquid was poured into a light-blocked airtight container (formed of glass).
5-Bromo-2′-deoxyuridine (BrdU, obtained from Nacalai Tesque, Inc.) (200 mg) was accurately weighed out in a volumetric flask, and dissolved in saline (obtained from Otsuka Pharmaceutical Co., Ltd.) added in the flask by ultrasonic irradiation. Subsequently, the resultant was adjusted to a volume of 20 mL, to prepare a 10 mg/mL liquid (BrdU preparation liquid). The prepared liquid was sterilized by filtration through a sterilized filtration filter and poured into a sterilized container.
The preparation liquids of each test substance and the positive control substance, and the medium were each applied to both auricles of the animals by 25 microliters each. A micropipetter was used for the application. This treatment was performed once a day for three consecutive days.
About 48 hours after the final sensitization, the BrdU preparation liquid was intraperitoneally administered once by 0.5 mL per animal.
About 24 hours after the BrdU administration, the animals were subjected to euthanasia, and their auricular lymph nodes were removed. Surrounding tissues of the auricular lymph nodes were removed, and the auricular lymph nodes on both sides were collectively weighted. The average and the standard error of the weights of the auricular lymph nodes were calculated per group. After the mass measurement, the auricular lymph nodes were cryopreserved per individual in a biomedical freezer set to −20 degrees C.
After the auricular lymph nodes were returned to room temperature, the auricular lymph nodes were ground with addition of saline and suspended in the saline. […]

[2] = Oral toxicity according to OECD test guideline TG423; type: in vivo
Protocol: (§1) As a safety test, AMES test was performed according to OECD test guideline TG471 (±S9 mix), and the result was negative. Oral toxicity was tested according to OECD test guideline TG423. […] Skin stimulation was tested according to OECD test guideline TG404, and the result was PII=0.5. Skin sensitizing potential was tested according to OECD test guideline TG442B.

[3] = type: in vivo; conditions: OECD TG404
Protocol: as §1

[4] = type: cell-based; conditions: OECD TG471, ±S9 mix
Protocol: as §1

Compound | SI (stimulation index, LLNA) [1] | also measured
C=CC(=O)N(C)CC(=O)OCC [Example A1-2, N-acryloyl-N-methylglycineethyl ester] | (see Synthesis example 2) SI = 1.02 | 
C=CC(=O)NCNC(=O)C=C [Example B2-5] | Tokyo Chemical Industry Co., Ltd., (product No. M2877), SI = 1.08 | 
C=CC(=O)NC(O)C(O)NC(=O)C=C (stereo not drawn) [Example B2-7] | Tokyo Chemical Industry Co., Ltd., (product No. D2864), SI = 1.01 | 
C=C(C)C(=O)OCC(COC(=O)C(=C)C)OC(C)=O [Example B1-6, 2-acetyl-1,3-glycerol dimethacrylate] | (see Synthesis example 8) SI = 1.40 | 
C=CC(=O)NCCN(CCN(CCNC(=O)C=C)C(=O)C=C)C(=O)C=C [Example B2-11] | FUJIFILM Corporation, FOM-03009, SI = 1.52 | 
C=C(C)C(=O)OCCOCCOC(=O)C(=C)C [Example B1-1] | Shin-Nakamura Chemical Co., Ltd., “2G”, SI = 1.05 | 
C=CC(=O)N1CCC(C(=O)OCC)CC1 [Example A1-7, ethyl N-acryloylpiperidine-4-carboxylate] | (see Synthesis example 7) SI = 1.70 | 
C=CC(=O)N(CC)CCN(CC)C(=O)C=C [Example B2-2] | (see Synthesis example 10) SI = 1.33 | 
C=CC(=O)N(C)CC(=O)OC [Example A1-1, N-acryloyl-N-methylglycinemethyl ester] | (see Synthesis example 1) SI = 1.00 | SI value (skin sensitizing potential) ([1]; OECD test guideline TG442B): 1.00; Fatal cases in oral toxicity test ([2]; OECD TG423): none of six cases was a fatal case; LD50 ([2]; in vivo, 2000 mg/kg, OECD TG423, oral): ≥ 2000 mg/kg; PII (skin stimulation) [3]: 0.5; AMES test result [4]: negative
C=CC(=O)NCCCOCCOCCOCCCNC(=O)C=C [Example B2-10] | FUJIFILM Corporation, FOM-03008, SI = 1.24 | 
C=CC(=O)N(C)CCN(C)C(=O)C=C [Example B2-1] | (see Synthesis example 9) SI = 1.20 | 
C=CC(=O)N(C)CCCCCCN(C)C(=O)C=C [Example B2-4] | (see Synthesis example 12) SI = 1.58 | 
C=CC(=O)NCCN(CCNC(=O)C=C)C(=O)C=C [Example B2-9] | FUJIFILM Corporation, FOM-03007, SI = 1.44 | 
C=CC(=O)N(C)CCOC(C)=O [Example A1-8, N-(2-Acetyloxyethyl)-N-methyl acrylamide] | (see Synthesis example 13) SI = 1.10 | 
C=CC(=O)N(C)C(C)C(=O)OC (stereo not drawn) [Example A1-4, N-acryloyl-N-methylalaninemethyl ester] | (see Synthesis example 4) SI = 1.12 | 
C=CC(=O)OC1CC2CCC1(C)C2(C)C (stereo not drawn) [Example A2-2, Isobornyl acrylate, reference compound] | Osaka Organic Chemical Industry Ltd., “Isobornyl acrylate”, SI = 8.30 | 
C=C(C)C(=O)OCCO [Example A2-1, 2-hydroxyethyl methacrylate, reference compound] | Tokyo Chemical Industry Co., Ltd., “2-hydroxyethyl methacrylate” SI = 1.26 | 
C=CC(=O)NCCNC(=O)C=C [Example B2-6] | Tokyo Chemical Industry Co., Ltd., (product No. E1086), SI = 1.23 | 
C=C(C)C(=O)OCC(CC)(COC(=O)C(=C)C)COC(=O)C(=C)C [Example B1-3] | Shin-Nakamura Chemical Co., Ltd., “TMPT”, SI = 1.03 | 
